# The source made the active and inactive calls. The rule behind the calls is not given here.
# System: cell viability, ATP luminescence (cytotoxicity counter-screen)
# Test: cytotoxicity of S1P4 agonist candidates, late-stage follow-up, cytotoxicity control for S1P4 agonist project, cell-based, luminescence, dose response, set 2, assay provider (AID 504875)
structure (smiles),measurement,value
COCCN=C1S/C(=C\c2cc(C)n(-c3ccc(F)cc3F)c2C)C(=O)N1C,CC50,> 10 µM (inactive)

# From PubChem BioAssay AID504875 (The Scripps Research Institute Molecular Screening Center, 2011)
